The values below come from patent US20100256357A1, “HETEROCYCLES USEFUL AS INHIBITORS OF CARBONIC ANHYDRASE” (Agouron Pharmaceuticals, Inc., priority 2006, published 2010).

Where two headings read alike, the source gives them in different places.

This test concerns the target T1, human CA-II (Homo sapiens, UniProt P00918).
T1 construct: purchased Sigma-Aldrich C6165
Briefly: Carbonic Anhydrase-II (CA-II) Fluorimetric Assay-IC50 Determination. Type of test: biochemical. The following applies: for inhibition at 0.01 µM: at 10 nM (c7); for inhibition at 0.01 µM / inhibition at 0.1 µM: read-out: CA-II % inhibition at concentration of column 7; for inhibition at 0.1 µM: at 100 nM (c7). The procedure: Carbonic Anhydrase-II (CA-II) Fluorimetric Assay-IC50 Determination
Compounds were diluted in DMSO at the concentration of 1 mM, then 50 μM and transferred to a 96-well plate for further dilutions (1:3 dilution, 11 points) in duplicate. Highest final concentration of compound in this CA-II Fluorimetric assay is 1 μM. Assays were conducted in a final volume of 100 μL in 50 mM Tris/HCl (pH 7.6), 100 mM Na2SO4 and 0.005% Tween-20 in a 96-well black assay plate. Fluorescein diacetate was used as the substrate. Enzyme inhibition was determined by pipetting 8 μL of human CA-II (5 nM, from Sigma-Aldrich, product #: C6165) into assay plate contained 2 μL of compound and 2 μL of substrate (10 μM) in 88 μL of assay buffer. The rate of the hydrolysis of fluorescein diacetate were measured spectrophometrically at 488 nm (excitation), 538 nm (emission) and 530 nm (cutoff) using a Molecular Devices SpectraMax M2 fluorescence reader at 25° C.

Where [1] appears, read: Kd ND, IC50 given instead, read-out: CA-II IC50 (where Kd is ND).
[2] abbreviates: given instead of Kd (ND), read-out: CA-II IC50.

In the case of `Cc1ncsc1CCN(C)C(=O)c1nc(Cc2ccccc2)n(-c2ccc(S(N)(=O)=O)cc2)n1` [Example R-65, 1-[4-(aminosulfonyl)phenyl]-5-benzyl-N-methyl-N-[2-(4-methyl-13-thiazol-5-yl)ethyl]-1H-124-triazole-3-carboxamide], the inhibition at 0.01 µM was 90%.

`Cc1csc(CN(C)C(=O)c2nc(Cc3ccccc3)n(-c3ccc(S(N)(=O)=O)cc3)n2)n1` [Example R-56, 1-[4-(aminosulfonyl)phenyl]-5-benzyl-N-methyl-N-[(4-methyl-13-thiazol-2-yl)methyl]-1H-124-triazole-3-carboxamide]: the inhibition at 0.01 µM was 95%.

In the case of `CC(C)C1(CO)CCN(C(=O)c2nc(Cc3ccccc3)n(-c3ccc(S(N)(=O)=O)cc3)n2)CC1` [Example R-73, 4-(5-benzyl-3-{[4-(hydroxymethyl)-4-isopropylpiperidin-1-yl]carbonyl}-1H-124-triazol-1-yl)benzenesulfonamide], the IC50 under setting [1] came out at 3.5 nM.

In the case of `CCCc1cc(CN(C)C(=O)c2nc(Cc3ccccc3)n(-c3ccc(S(N)(=O)=O)cc3)n2)n[nH]1` [Example R-51, 1-[4-(aminosulfonyl)phenyl]-5-benzyl-N-methyl-N-[(5-propyl-1H-pyrazol-3-yl)methyl]-1H-124-triazole-3-carboxamide], the inhibition at 0.01 µM worked out at 97%.

As for `CCN(CCN(C)C)C(=O)c1nc(Cc2ccccc2)n(-c2ccc(S(N)(=O)=O)cc2)n1` [Example R-43, 1-[4-(aminosulfonyl)phenyl]-5-benzyl-N-[2-(dimethylamino)ethyl]-N-ethyl-1H-124-triazole-3-carboxamide], the inhibition at 0.1 µM is 100%.

Consider `C[C@@H]([C@@H](O)c1ccccc1)N(C)C(=O)c1nc(Cc2ccccc2)n(-c2ccc(S(N)(=O)=O)cc2)n1` [Example R-47, 1-[4-(aminosulfonyl)phenyl]-5-benzyl-N-[(1S2S)-2-hydroxy-1-methyl-2-phenylethyl]-N-methyl-1H-124-triazole-3-carboxamide], for which the inhibition at 0.01 µM turned out to be 90%.

`Cc1noc(C2CCN(C(=O)c3nc(Cc4ccccc4)n(-c4ccc(S(N)(=O)=O)cc4)n3)C2)n1` (centres unmarked) [Example R-63, 4-(5-benzyl-3-{[3-(3-methyl-124-oxadiazol-5-yl)pyrrolidin-1-yl]carbonyl}-1H-124-triazol-1-yl)benzenesulfonamide]: the inhibition at 0.01 µM was found to be 95%.

On to `CN(CCOc1ccccc1)C(=O)c1nc(Cc2ccccc2)n(-c2ccc(S(N)(=O)=O)cc2)n1` [Example R-42, 1-[4-(aminosulfonyl)phenyl]-5-benzyl-N-methyl-N-(2-phenoxyethyl)-1H-124-triazole-3-carboxamide], for which the inhibition at 0.1 µM amounted to 98%. Moreover, under setting [2], the IC50 was found to be 3.78 nM.

With `CC(C)(C)N(CCC#N)C(=O)c1nc(Cc2ccccc2)n(-c2ccc(S(N)(=O)=O)cc2)n1` [Example R-96, 1-[4-(aminosulfonyl)phenyl]-5-benzyl-N-(tert-butyl)-N-(2-cyanoethyl)-1H-124-triazole-3-carboxamide], the IC50 under setting [1] turned out to be 3.34 nM.

Take `CC(C)N(CC(O)c1ccccc1)C(=O)c1nc(Cc2ccccc2)n(-c2ccc(S(N)(=O)=O)cc2)n1` (centres unmarked) [Example R-45, 1-[4-(aminosulfonyl)phenyl]-5-benzyl-N-(2-hydroxy-2-phenylethyl)-N-isopropyl-1H-124-triazole-3-carboxamide]: the inhibition at 0.01 µM was determined as 95%.

As for `CN(CCc1ccccc1)C(=O)c1nc(Cc2ccccc2)n(-c2ccc(S(N)(=O)=O)cc2)n1` [Example R-48, 1-[4-(aminosulfonyl)phenyl]-5-benzyl-N-methyl-N-(2-phenylethyl)-1H-124-triazole-3-carboxamide], the inhibition at 0.01 µM came out at 97%.

Turning to `Cc1cc(CN(C)C(=O)c2nc(Cc3ccccc3)n(-c3ccc(S(N)(=O)=O)cc3)n2)on1` [Example R-64, 1-[4-(aminosulfonyl)phenyl]-5-benzyl-N-methyl-N-[(3-methylisoxazol-5-yl)methyl]-1H-124-triazole-3-carboxamide], the inhibition at 0.01 µM stood at 94%. In addition, the IC50 under setting [2] amounted to 2.95 nM.

On to `NS(=O)(=O)c1ccc(-n2nc(C(=O)NC3Cc4ccccc4C3)nc2Cc2ccccc2)cc1` [Example R-33, 1-[4-(aminosulfonyl)phenyl]-5-benzyl-N-(23-dihydro-1H-inden-2-yl)-1H-124-triazole-3-carboxamide], for which the inhibition at 0.1 µM came out at 101%.

Regarding `CC1(c2ccccc2)CN(C(=O)c2nc(Cc3ccccc3)n(-c3ccc(S(N)(=O)=O)cc3)n2)CCO1` (centres unmarked) [Example R-46, 4-{5-benzyl-3-[(2-methyl-2-phenylmorpholin-4-yl)carbonyl]-1H-124-triazol-1-yl}benzenesulfonamide], the inhibition at 0.01 µM was 96%.

For `CN(CC(F)(F)F)C(=O)c1nc(Cc2ccccc2)n(-c2ccc(S(N)(=O)=O)cc2)n1` [Example R-101, 1-[4-(aminosulfonyl)phenyl]-5-benzyl-N-methyl-N-(222-trifluoroethyl)-1H-124-triazole-3-carboxamide], the IC50 under setting [1] is 3.48 nM.

Consider `CCN(CCC#N)C(=O)c1nc(Cc2ccccc2)n(-c2ccc(S(N)(=O)=O)cc2)n1` [Example R-41, 1[4-(aminosulfonyl)phenyl]-5-benzyl-N-(2-cyanoethyl)-N-ethyl-1H-124-triazole-3-carboxamide], for which the inhibition at 0.1 µM is 99%.

As for `CN(CCc1cn[nH]c1)C(=O)c1nc(Cc2ccccc2)n(-c2ccc(S(N)(=O)=O)cc2)n1` [Example R-62, 1-[4-(aminosulfonyl)phenyl]-5-benzyl-N-methyl-N-[2-(1H-pyrazol-4-yl)ethyl]-1H-124-triazole-3-carboxamide], the inhibition at 0.01 µM was 96%.

As to `COc1cccc(CN(C)C(=O)c2nc(Cc3ccccc3)n(-c3ccc(S(N)(=O)=O)cc3)n2)c1` [Example R-103, 1-[4-(aminosulfonyl)phenyl]-5-benzyl-N-(3-methoxybenzyl)-N-methyl-1H-124-triazole-3-carboxamide], under setting [1], the IC50 came to 3.12 nM.

In the case of `NS(=O)(=O)c1ccc(-n2nc(C(=O)N3CCc4nocc4C3)nc2Cc2ccccc2)cc1` [Example R-57, 4-[5-benzyl-3-(67-dihydroisoxazolo[43-c]pyridin-5(4H)-ylcarbonyl)-1H-124-triazol-1-yl]benzenesulfonamide], the inhibition at 0.01 µM turned out to be 96%.

Take `CN(CC(C)(O)c1ccccc1)C(=O)c1nc(Cc2ccccc2)n(-c2ccc(S(N)(=O)=O)cc2)n1` (centres unmarked) [Example R-54, 1-[4-(aminosulfonyl)phenyl]-5-benzyl-N-(2-hydroxy-2-phenylpropyl)-N-methyl-1H-124-triazole-3-carboxamide]: the inhibition at 0.01 µM stood at 97%.

As to `Cc1ccc(CN(C)C(=O)c2nc(Cc3ccccc3)n(-c3ccc(S(N)(=O)=O)cc3)n2)cc1` [Example R-38, 1-[4-(aminosulfonyl)phenyl]-5-benzyl-N-methyl-N-(4-methylbenzyl)-1H-124-triazole-3-carboxamide], the inhibition at 0.1 µM was found to be 100%. Besides, the IC50 under setting [2] is 3.13 nM.

Consider `CCCCN(CCC)C(=O)c1nc(Cc2ccccc2)n(-c2ccc(S(N)(=O)=O)cc2)n1` [Example R-36, 1-[4-(aminosulfonyl)phenyl]-5-benzyl-N-butyl-N-propyl-1H-124-triazole-3-carboxamide], for which the inhibition at 0.1 µM came out at 100%. The IC50 under setting [2] worked out at 3.12 nM.

Regarding `CCCN(CCc1ccccn1)C(=O)c1nc(Cc2ccccc2)n(-c2ccc(S(N)(=O)=O)cc2)n1` [Example R-58, 1-[4-(aminosulfonyl)phenyl]-5-benzyl-N-propyl-N-(2-pyridin-2-ylethyl)-1H-124-triazole-3-carboxamide], the inhibition at 0.01 µM stood at 98%.

Regarding `CN(Cc1ccccc1)C(=O)c1nc(Cc2ccccc2)n(-c2ccc(S(N)(=O)=O)cc2)n1` [Example R-109, 1-[4-(aminosulfonyl)phenyl]-N5-dibenzyl-N-methyl-1H-124-triazole-3-carboxamide], under setting [1], the IC50 worked out at 3.61 nM.

With `NS(=O)(=O)c1ccc(-n2nc(C(=O)NCCNc3ccccn3)nc2Cc2ccccc2)cc1` [Example R-35, 1-[4-(aminosulfonyl)phenyl]-5-benzyl-N-[2-(pyridin-2-ylamino)ethyl]-1H-124-triazole-3-carboxamide], the inhibition at 0.1 µM came out at 101%.

For the compound `N#CCCN(C(=O)c1nc(Cc2ccccc2)n(-c2ccc(S(N)(=O)=O)cc2)n1)C1CCCC1` [Example R-74, 1-[4-(aminosulfonyl)phenyl]-5-benzyl-N-(2-cyanoethyl)-N-cyclopentyl-1H-124-triazole-3-carboxamide], the IC50 under setting [1] came to 3.43 nM.

For the compound `NS(=O)(=O)c1ccc(-n2nc(C(=O)N3CC4CCCC3C4)nc2Cc2ccccc2)cc1` (centres unmarked) [Example R-26, 4-[3-(6-azabicyclo[3.2.1]oct-6-ylcarbonyl)-5-benzyl-1H-124-triazol-1-yl]bezenesulfonamide], the inhibition at 0.1 µM came to 99%. Under setting [2], the IC50 came out at 2.84 nM.

For the compound `NS(=O)(=O)c1ccc(-n2nc(C(=O)N3CCc4ccccc4C3)nc2Cc2ccccc2)cc1` [Example R-52, 4-[5-benzyl-3-(34-dihydroisoqionolin-2(1H)-ylcarbonyl)-1H-124-triazol-1-yl]benzenesulfonamide], the inhibition at 0.01 µM worked out at 96%. Besides, the half-maximal inhibitory concentration (IC50) under setting [2] is 2.83 nM.

Consider `NS(=O)(=O)c1ccc(-n2nc(C(=O)N3CCc4conc4CC3)nc2Cc2ccccc2)cc1` [Example R-61, 4-[5-benzyl-3-(4578-tetrahydro-6H-isoxazolo[34-d]azepin-6-ylcarbonyl)-1H-124-triazol-1-yl]benzenesulfonamide], for which the inhibition at 0.01 µM was 94%.
